Assay results as given in the NIST ThermoML archive (doi:10.1021/je8004613).

What was measured:
[1] = 101.33 kPa, Liquid; for speed of sound: Pulse-echo method; for mass density: Vibrating tube method
[2] = excess molar enthalpy (molar enthalpy of mixing); xn = mol fraction of the nth substance listed; details: 298.15 K, 101 kPa, Liquid

CCCCCCCC [octane]
[1]
Details	mass density [kg/m3]	speed of sound [m/s]
288.15 K	706.58	1213.6
293.15 K	702.57	1193
298.15 K	698.55	1171.9
303.15 K	694.48	1151
308.15 K	690.42	1130.3

CCCCCCCC [octane] + CCCCO
[2]
Details	excess molar enthalpy [kJ/mol]
x2 = 0.03632	0.323
x2 = 0.0645	0.427
x2 = 0.1182	0.537
x2 = 0.1568	0.575
x2 = 0.2031	0.637
x2 = 0.2488	0.662
x2 = 0.299	0.682
x2 = 0.345	0.687
x2 = 0.4028	0.68
x2 = 0.4499	0.668
x2 = 0.5029	0.635
x2 = 0.6034	0.561
x2 = 0.6988	0.47
x2 = 0.7979	0.342
x2 = 0.9005	0.182
x2 = 0.9493	0.094
